Assays:
[1] = 101 kPa, Liquid
[2] = refractive index (Na D-line) (dimensionless); conditions: 101.33 kPa, Liquid, Standard Abbe refractometry
[3] = refractive index (Na D-line) (dimensionless); xn = mol fraction of the nth substance listed; conditions: 101 kPa, Liquid, Standard Abbe refractometry, x2 = 0
[4] = xn = mol fraction of the nth substance listed; conditions: 101 kPa, Liquid, x2 = 0

CC(O)CN (centres undefined) [1-amino-2-propanol]
Conditions	mass density, [1] [kg/m3]	refractive index, [2]	viscosity, [1] [mPa·s]
293.15 K	–	1.448	–
298.15 K	956.51	1.44609	26.68
303.15 K	952.52	1.44409	20.31
308.15 K	–	1.44211	–
313.15 K	944.42	1.44009	12.51
318.15 K	–	1.43817	–
323.15 K	936.19	1.43631	7.543
328.15 K	–	1.43405	–
333.15 K	927.84	1.43208	5.22
343.15 K	919.37	–	3.77

O [water] + CC(O)CN
Conditions	mass density, [4] [kg/m3]	refractive index, [3]	viscosity, [4] [mPa·s]
293.15 K	–	1.33298	–
298.15 K	–	1.33249	0.882
303.15 K	–	1.33193	0.804
308.15 K	–	1.33136	–
313.15 K	–	1.33067	0.658
318.15 K	–	1.3299	–
323.15 K	988.03	1.32906	0.551
328.15 K	–	1.32818	–
333.15 K	983.19	1.32726	0.47
343.15 K	977.75	–	0.407
